Tested on: MCF-7 cells
Test: In vitro cell proliferation assay (WST assay)
Type: cell-based
Conditions: Homo sapiens, MCF7, 72 h, total incubation time 72 h, viable cells by WST-1 reagent
Experimental: In vitro Cell Proliferation Assay (WST Assay)
MCF-7 cells were seeded in 96-well plates at 3×10^3 cells/well in 100 μL of culture medium, 8 wells were left empty for media only controls.
After 24 h the compound titrations were performed, in a separate dilution plate, by serially diluting the compounds of general formula (I) in culture medium. A 100 μL of each dilution was added to the plated cells, this was done in triplicate, and controls (e.g. DMSO and blanks) were included. The plates were incubated for 24 h at 37° C. in a CO2 incubator. The compound titrations were repeated in a separate dilution plate after 24 h. The media plus compound from the assay plates were then aspirated. A 100 μL of media was then added to all wells, followed by 100 μL of each compound dilution. The plates were incubated for a further 48 h at 37° C. in a CO2 incubator (total incubation time 72 h). The number of viable cells was then assessed using Cell Proliferation Reagent WST-1. 10 μL of WST-1 reagent added to each well and incubated for one to four hours at 37° C. in CO2 incubator. The absorbance was measured (450 nm/690 nm).
The activity of compounds of general formula (I) in reducing the number of viable cells was calculated as:
% activity=[(S^c−B)/(S^o−B)]×100
S^c denotes signal measured in the presence of test compound, S^o denotes signal detected in the absence of compound, and B denotes background signal, measured in blank wells containing medium only. Analyse data using GraphPad Prism.

| SMILES | IC50 [nM] |
| --- | --- |
| Cc1ccc2c(c1C)NC(=O)C2(c1ccc(O)cc1)C1CCCCCC1 (stereo not drawn) [Compound 1043, 3-cycloheptyl-3-(4-hydroxyphenyl)-6,7-dimethylindolin-2-one] | 19.1 |
| Cc1ccc2c(c1F)NC(=O)C2(c1ccc(O)cc1)C1CCCCCC1 (stereo not drawn) [Compound 1034, 3-cycloheptyl-7-fluoro-3-(4-hydroxyphenyl)-6-methylindolin-2-one] | 9.1 |
| Cc1cccc2c1NC(=O)C2(c1ccc(O)cc1)C1CCCCC1 (stereo not drawn) [Compound 1059, 3-cyclohexyl-3-(4-hydroxyphenyl)-7-methylindolin-2-one] | 32.9 |
| O=C1Nc2c(Br)cccc2C1(c1ccc(O)cc1)C1CCCCC1 (stereo not drawn) [Compound 1062, 7-bromo-3-cyclohexyl-3-(4-hydroxyphenyl)indolin-2-one] | 6.8 |
| Cc1c(F)ccc2c1NC(=O)C2(c1ccc(O)cc1)C1CCCCC1 (stereo not drawn) [Compound 1039, 3-cyclohexyl-6-fluoro-3-(4-hydroxyphenyl)-7-methylindolin-2-one] | 5.7 |
| COc1cc(C)c2c(c1)C(c1ccc(O)cc1)(C1CCCCC1)C(=O)N2 (stereo not drawn) [Compound 1070] | 10 |
| COc1ccc2c(c1C)NC(=O)C2(c1ccc(O)cc1)C1CCCCCC1 (stereo not drawn) [Compound 1087, 3-cycloheptyl-3-(4-hydroxyphenyl)-6-methoxy-7-methylindolin-2-one] | 4.7 |
| Cc1ccc2c(c1C)NC(=O)C2(c1ccc(O)cc1)C1CCCCC1 (stereo not drawn) [Compound 1025, 3-cyclohexyl-3-(4-hydroxyphenyl)-6,7-dimethylindolin-2-one] | 25.9 |
| Cc1ccc2c(c1Cl)NC(=O)C2(c1ccc(O)cc1)C1CCCCCC1 (stereo not drawn) [Compound 1053, 7-chloro-3-cycloheptyl-3-(4-hydroxyphenyl)-6-methylindolin-2-one] | 3.5 |
| COc1ccc2c(c1C)NC(=O)C2(c1ccc(O)cc1)C1CCCCC1 (stereo not drawn) [Compound 1046, 3-cyclohexyl-3-(4-hydroxyphenyl)-6-methoxy-7-methylindolin-2-one] | 12.6 |
| O=C1Nc2c(C(F)(F)F)cccc2C1(c1ccc(O)cc1)C1CCCCC1 (stereo not drawn) [Compound 1021, 3-cyclohexyl-3-(4-hydroxyphenyl)-7-(trifluoromethyl)indolin-2-one] | 17.5 |
| O=C1Nc2c(ccc(F)c2F)C1(c1ccc(O)cc1)C1CCCCCC1 (stereo not drawn) [Compound 1018, 3-cycloheptyl-6,7-difluoro-3-(4-hydroxyphenyl)indolin-2-one] | 3.4 |
| Cc1ccc2c(c1Br)NC(=O)C2(c1ccc(O)cc1)C1CCCCC1 (stereo not drawn) [Compound 1056, 7-bromo-3-cyclohexyl-3-(4-hydroxyphenyl)-6-methylindolin-2-one] | 10.5 |

Next, values leading:

| IC50 [nM] | SMILES |
| --- | --- |
| 34.5 | O=C1Nc2c(ccc(F)c2F)C1(c1ccncc1)c1ccc(O)cc1 (stereo not drawn) [Compound 1006, 6,7-difluoro-3-(4-hydroxyphenyl)-3-(pyridin-4-yl)indolin-2-one] |
| 10.2 | O=C1Nc2c(ccc(F)c2F)C1(c1ccc(O)cc1)c1ccc2ccccc2c1 (stereo not drawn) [Compound 1033, 6,7-difluoro-3-(4-hydroxyphenyl)-3-(naphthalene-2-yl)indolin-2-one] |
| 4 | Cc1ccc(C2(c3ccc(O)cc3)C(=O)Nc3c2ccc(F)c3F)cc1F (stereo not drawn) [Compound 1023, 6,7-difluoro-3-(3-fluor-4-methylphenyl)-3-(4-hydroxyphenyl)indolin-2-one] |
| 7.3 | O=C1Nc2c(ccc(F)c2F)C1(c1ccc(O)cc1)C1CCCCC1 (stereo not drawn) [Compound 1010, 3-cyclohexyl-6,7-difluoro-3-(4-hydroxyphenyl)indolin-2-one] |
| 5.2 | O=C1Nc2c(ccc(F)c2F)C1(c1ccc(O)cc1)c1ccc(F)c(F)c1 (stereo not drawn) [Compound 1022, 3-(3,4-difluorophenyl)-6,7-difluoro-3-(4-hydroxyphenyl)indolin-2-one] |
| 8.4 | O=C1Nc2c(ccc(F)c2F)C1(c1ccc(O)cc1)c1ccc(O)cc1 [Reference compound, 6,7-Difluoro-3,3-bis-(4-hydroxy-phenyl)-1,3-dihydro-indol-2-one, reference compound] |

Same assay, conditions: total incubation time 72 h, viable cells by WST-1 reagent

| SMILES | IC50 [nM] |
| --- | --- |
| O=C1Nc2c(ccc(F)c2F)C1(c1ccc(O)cc1)C1CCCCC1 (single isomer, unassigned) [Compound 1028, 3-cyclohexyl-6,7-difluoro-3-(4-hydroxyphenyl)indolin-2-one] | > 500 |
| O=C1Nc2c(ccc(F)c2F)C1(c1ccc(O)cc1)C1CCCCC1 (single isomer, unassigned) [Compound 1027, 3-cyclohexyl-6,7-difluoro-3-(4-hydroxyphenyl)indolin-2-one] | 3.9 |

Source: patent US20100227863A1, “SUBSTITUTED 3-(4-HYDROXYPHENYL)-INDOLIN-2-ONE COMPOUNDS” (TOPOTARGET A/S, priority 2007, published 2010)
